Test system: microbes of beef purge inoculum
Assay: Modified film test: total aerobic plate count after contact of inoculum with antimicrobial test film
Assay type: cell-based
Conditions: for Antimicrobial Performance vs. VLDPE Control (percent reduction in microbes), Amide wax alone Erucamide, Test 2: primary additive 10 wt % in Affinity PL 1280G1 C8-VLDPE containing 1664 ppm cis-13-docosenamide
Description: Each of the materials shown in Tables 1 and 2 was compounded into sealant resin, comprised of Affinity PL 1280G, a C8-VLDPE and films were prepared for microbial control testing. The primary additives were tested at 10 wt %. Secondary additives and Cis-13-docosenamide (sold under the trade name Erucamide) were tested as detailed in Table 3.
Test 2: Each of the primary antimicrobial materials in Table 1 was compounded at 10 wt % into sealant resin comprised of Affinity PL 1280G1, a C8-VLDPE containing 1664 ppm of cis-13-docosenamide and films were prepared for microbial control testing.
Tests 3-5: Each of the primary antimicrobial materials in Table 1 was compounded at 10% w/w into sealant resin comprised of Affinity PL 1280G, a C8-VLDPE and 2-3 wt % of the secondary antimicrobials (Table 2) or cis-13-docosenamide were added as detailed in Table 3 and films were prepared for microbial control testing.
Due to the limitations seen in the laboratory with the ISO 22196 test, a modified film test was developed. The test protocol was designed to simulate an actual package environment. […] “Purge” is the liquid that exudes from cut meat or poultry and collects freely in the package. This is typically found in larger packages. The purge liquid can be carefully removed from the packages and used for the following tests. For the tests conducted in this study, beef purge was used. The beef purge is a combination of water, fats, enzymes and meat proteins that drain from the meat. The purge also contains the same bacterial flora as that which contaminates the surface of the meat itself. Thus, this purge could include gram positive bacteria like Lactobacillus species, (Lactic Acid Bacteria), and Listeria species, as well as, gram negative bacteria like E. coli, Campylobacter or Salmonella species.
Antimicrobial films may contain the active ingredient extruded into the surface layer of the film, or coated onto the film. A test method was developed to provide a continuous, uniform coverage of a known amount of the inoculum on the test films.
A 1 inch by 3 inch “tape well” is created on the antimicrobial test film. The “tape well” is crafted by cutting a 1 inch by 3 inch section from a strip of 3 inch wide vinyl tape and applying the tape to the antimicrobial film surface. The test film is secured to a Lexan sheet for stability and handling.
To the well, 0.2 ml of an inoculum is added. The inoculums are either the meat purge or cultures of nutrient broth with E. coli (ATTC #4157 or ATTC #33876) added to the broth. The Escherichia coli is a gram-negative, facultative, anaerobic, rod-shaped, coliform bacterium.
A 1 inch by 3 inch strip of Cryovac brand D-955, a non-barrier film, is placed over the inoculum to provide complete wetting of the test film with the inoculum and to prevent desiccation of the inoculum. The high OTR properties of the D-955 allow growth of the inoculum trapped between the antimicrobial test film and the D-955 film.
Inoculated films are incubated at refrigerated conditions of 40° F. for both 1 and 5 days in a high humidity sealed pouch.
The inoculum is recovered from the well by both adding the inoculum wetted D-955 film over-layment to a distilled water test tube and by swabbing the test film surface twice and placing the swab in the same test tube.
The total aerobic plate count is enumerated using Aerobic Plate Count 3M Petri Film.
Results are reported as log10 CFU/g. The difference in counts between the sample and control is the “delta log CFU/g”. This is mathematically converted to a percent reduction=(1−10^(−delta log CFU/g))*100

[1] = 5 day test, beef purge inoculum, 40° F.

Row | Structure (SMILES) | Antimicrobial Performance vs. VLDPE Control (percent reduction in microbes), Amide wax alone Erucamide, Test 2 [1] [%] | Antimicrobial Performance vs. VLDPE Control (percent reduction in microbes), None Control, Test 1 (primary additive 10 wt % in Affinity PL 1280G C8-VLDPE sealant film, no secondary additive, 5 day test, beef purge inoculum, 40° F.) [%] | Antimicrobial Performance vs. VLDPE Control (percent reduction in microbes), Cleanatis M1 @ 2%, Test 4 (primary additive 10 wt % in VLDPE film plus 2 wt % Cleanatis M1 (With Amide wax), 5 day test, beef purge inoculum, 40° F.) [%] | Antimicrobial Performance vs. VLDPE Control (percent reduction in microbes), Cleanatis M2 @2%, Test 5 (primary additive 10 wt % in VLDPE film plus 2 wt % Cleanatis M2 (With Amide wax), 5 day test, beef purge inoculum, 40° F.) [%] | Antimicrobial Performance vs. VLDPE Control (percent reduction in microbes), KANCOR CLS @ 2%, Test 3 (primary additive 10 wt % in VLDPE film plus 2 wt % Kancor OxiKan CLS (With Amide wax), 5 day test, beef purge inoculum, 40° F.) [%] | Percent Reduction in Microbes of Test Samples at Day 5 versus the "Additive Controls", None Control, Test 1 (primary additive 10 wt % in VLDPE film, control = VLDPE film, Day 5) [%] | Percent Reduction in Microbes of Test Samples at Day 5 versus the "Additive Controls", Amide wax Erucamide, Test 2 (primary additive 10 wt % in VLDPE with Erucamide, control = VLDPE + Erucamide film, Day 5) [%] | Percent Reduction in Microbes of Test Samples at Day 5 versus the "Additive Controls", Cleanatis M1 @ 2%, Test 4 (primary additive 10 wt % plus Cleanatis M1 2%, control = VLDPE + Cleanatis M1 film, Day 5) | Percent Reduction in Microbes of Test Samples at Day 5 versus the "Additive Controls", Cleanatis M2 @2%, Test 5 (primary additive 10 wt % plus Cleanatis M2 2%, control = VLDPE + Cleanatis M2 film, Day 5) | Percent Reduction in Microbes of Test Samples at Day 5 versus the "Additive Controls", KANCOR CLS @ 2%, Test 3 (primary additive 10 wt % plus KANCOR CLS 2%, control = VLDPE + KANCOR CLS film, Day 5) [%]
1 | CCCCCCCC/C=C\CCCCCCCCCCCC(N)=O [Erucamide, Cis-13-docosenamide] | 0 | – | – | – | – | – | – | – | – | –
2 | C[C@H](O)C(=O)[O-].[Na+] [Purasal S98, Sodium L-lactate] | 0 | 0 | 8.8 | 64.5187 | 92.0567 | 0 | 0 | Growth | Growth | 22.3735
